What all share (assay type): cell-based, mouse
Assay [1] concerns NIH3T3 cells overexpressing PKCalpha-KN. As to the kind of experiment: MTT cell viability, PKCalpha-KN overexpressing cells vs parental line. Conditions: 3 to 4 days. A digest of the protocol: (§1)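 Each full-length cDNA is expressed from a CMV vector in NIH3T3 cells, and a high-expressing clone is compared with the parental line. Viability is measured by MTT after 3–4 days with graded drug concentrations, and the log IC40 ratio is reported.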

Assay [2] has as its system NIH3T3 cells overexpressing PDGF-R. As to the kind of experiment: MTT cell viability, PDGF-R overexpressing cells vs parental line. As to conditions: PDGF-R high-expressing cells / parental cell line, 3 to 4 days. A digest of the protocol:
(§2)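 Stable NIH3T3 transfectants (cDNA in pRc-CMV-type vector, G-418-selected, high expressers picked by Western blot) and parental cells were seeded at 1×10^5 cells/ml into twofold serial drug dilutions and grown 3–4 days. MTT formazan was read at 574/655 nm, and log ratios of IC40 values were derived.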

Assay [3] relates to NIH3T3 cells overexpressing HSP4O. Nature of the assay: MTT cell viability, HSP4O overexpressing cells vs parental line. As to conditions: HSP4O high-expressing cells / parental cell line, 3 to 4 days. Put shortly:
as §2

Assay [4] deals with NIH3T3 cells overexpressing C/EBPa. Nature of the assay: MTT cell viability, C/EBPa overexpressing cells vs parental line. Conditions: C/EBPa high-expressing cells / parental cell line, 3 to 4 days. Put shortly: as §1
The test system of assay [5] is NIH3T3 cells overexpressing PDGF-R-Del. As to the kind of experiment: MTT cell viability, PDGF-R-Del overexpressing cells vs parental line. As to conditions: PDGF-R-Del high-expressing cells / parental cell line, 3 to 4 days. A digest of the protocol:
as §2

The subject of assay [6] is NIH3T3 cells overexpressing PKCepsilon-KN. Nature of the assay: MTT cell viability, PKCepsilon-KN overexpressing cells vs parental line. As to conditions: 3 to 4 days. A digest of the protocol:
as §1

Assay [7] deals with NIH3T3 cells overexpressing Ha-ras. Nature of the assay: MTT cell viability, drug sensitivity of Ha-ras overexpressing cells vs parental line. Conditions: Ha-ras high-expressing cells / parental cell line, 3 to 4 days. Put shortly:
as §1

For assay [8], the system named is NIH3T3 cells overexpressing C/EBPb. As to the kind of experiment: MTT cell viability, C/EBPb overexpressing cells vs parental line. As to conditions: C/EBPb high-expressing cells / parental cell line, 3 to 4 days. Put shortly:
as §1

Assay [9] has as its system NIH3T3 cells overexpressing HNF1. As to the kind of experiment: MTT cell viability, HNF1 overexpressing cells vs parental line. As to conditions: HNF1 high-expressing cells / parental cell line, 3 to 4 days. A digest of the protocol: as §1
Assay [10] relates to NIH3T3 cells overexpressing v-src. As to the kind of experiment: MTT cell viability, v-src overexpressing cells vs parental line. Conditions: v-src high-expressing cells / parental cell line, 3 to 4 days. A digest of the protocol: as §2
Assay [11] concerns NIH3T3 cells overexpressing cystatin alpha. Nature of the assay: MTT cell viability, cystatin alpha overexpressing cells vs parental line. As to conditions: cystatin alpha high-expressing cells / parental cell line, 3 to 4 days. Put shortly: as §2
For assay [12], the system named is NIH3T3 cells overexpressing CP-antisense. Nature of the assay: MTT cell viability, CP-antisense cells vs parental line. Conditions: 3 to 4 days. Put shortly:
as §2

Assay [13] deals with NIH3T3 cells overexpressing p38-DN. Nature of the assay: MTT cell viability, p38-DN overexpressing cells vs parental line. Conditions: p38-DN high-expressing cells / parental cell line, 3 to 4 days. A digest of the protocol:
as §1

Assay [14] concerns NIH3T3 cells overexpressing coup. As to the kind of experiment: MTT cell viability, coup overexpressing cells vs parental line. As to conditions: coup high-expressing cells / parental cell line, 3 to 4 days. A digest of the protocol: as §2
Assay [15] relates to NIH3T3 cells overexpressing JNK-DN. As to the kind of experiment: MTT cell viability, JNK-DN overexpressing cells vs parental line. As to conditions: JNK-DN high-expressing cells / parental cell line, 3 to 4 days. Put shortly:
as §2

Assay [16] deals with NIH3T3 cells overexpressing m-calpain. As to the kind of experiment: MTT cell viability, m-calpain overexpressing cells vs parental line. Conditions: m-calpain high-expressing cells / parental cell line, 3 to 4 days. Put shortly:
as §1

The test system of assay [17] is NIH3T3 cells overexpressing RhoA-DN. As to the kind of experiment: MTT cell viability, RhoA-DN overexpressing cells vs parental line. Conditions: RhoA-DN high-expressing cells / parental cell line, 3 to 4 days. Put shortly: as §1
For assay [18], the system named is NIH3T3 cells overexpressing DAN. As to the kind of experiment: MTT cell viability, DAN overexpressing cells vs parental line. As to conditions: DAN high-expressing cells / parental cell line, 3 to 4 days. A digest of the protocol:
as §2

Assay [19] has as its system NIH3T3 cells overexpressing TK. As to the kind of experiment: MTT cell viability, TK overexpressing cells vs parental line. As to conditions: TK high-expressing cells / parental cell line, 3 to 4 days. Put shortly: as §2
[20] abbreviates: PKCalpha-KN (first of two lines) high-expressing cells / parental cell line.
The mark [21] stands for this setting: PKCalpha-KN (second of two lines) high-expressing cells / parental cell line.
Where [22] appears, read: PKCepsilon-KN (first of two lines) high-expressing cells / parental cell line.
The mark [23] stands for this setting: PKCepsilon-KN (second of two lines) high-expressing cells / parental cell line.

Consider five compounds from patent US20040086901A1, “Database for analyzing gene function and method of analyzing gene function by dspa” (priority 2000, published 2004).

Turning to `CNc1ccc2oc(C[C@H]3O[C@@]4(CC[C@H]3C)O[C@H]([C@H](C)C(=O)c3ccc[nH]3)[C@H](C)C[C@H]4C)nc2c1C(=O)O` [A23187], the “logarithmic value of ratio of IC40 values” is on record as 0.22 in [1] (setting [20]); −0.05 in [1] (setting [21]); 0.31 in assay [2]; −0.16 in [3]; 0.00 in [4]; 0.15 in assay [5]. Further, the “logarithmic value of ratio of IC40 values” in assay [6] (setting [22]) was −0.28; in assay [6] (setting [23]), 0.15; in [7], −0.28; in assay [8] it was 0.25; in [9], 0.35; in [10] it was −0.19. In addition, the “logarithmic value of ratio of IC40 values” in [11] is reported as 0.26; in assay [12], −0.36; in assay [13], −0.12; in [14] it was −0.12; in assay [15], −0.08; in assay [16], 0.26. Besides, the entries for the “logarithmic value of ratio of IC40 values” in [17], in assay [18] and in assay [19] were 0.03, 0.40 and 0.00, respectively.

Turning to `CCCC[C@@H](C)/C=C(C)/C=C(\C)C(=O)NC1=C[C@@](O)(/C=C/C=C/C=C/C(=O)NC2=C(O)CCC2=O)[C@@H]2O[C@@H]2C1=O` [Manumycin, manumycin], the “logarithmic value of ratio of IC40 values” in assay [1] (setting [20]) is on record as 0.00; in [1] (setting [21]) it was 0.16; in assay [2] it was 0.17; in assay [3], −0.06; in [4], 0.00; in [5] it was 0.09. The “logarithmic value of ratio of IC40 values” in assay [6] (setting [22]) was −0.11; in assay [6] (setting [23]), 0.16; in assay [7], −0.30; in assay [8], 0.47; in assay [9] it was 0.06; in assay [10], 0.00. Also, the “logarithmic value of ratio of IC40 values” in assay [11] is reported as −0.19; in assay [12] it was 0.00; in assay [13], 0.00; in [14] it was 0.09; in assay [15] it was −0.05; in assay [16], 0.05. The “logarithmic value of ratio of IC40 values” in assay [17] is −0.13; in assay [18], 0.00; in [19] it was 0.00.

For `CO[C@H]1[C@@H](OC)C[C@H](C)[C@@H](OC)C2=CC(=O)C=C(NC(=O)/C(C)=C/C=C\[C@H](OC)[C@@H](OC(N)=O)/C(C)=C/[C@@H]1C)C2=O` [HMA, herbimycin A], the “logarithmic value of ratio of IC40 values” in assay [1] (setting [20]) is on record as 0.09; in assay [1] (setting [21]) it was −0.10; in [2], 0.19; in assay [3], 0.00; in [4], 0.00; in assay [5], 0.00. In addition, the “logarithmic value of ratio of IC40 values” in assay [6] (setting [22]) was −0.11; in assay [6] (setting [23]) it was 0.09; in [7] it was −0.35; in [8], 0.45; in assay [9], 0.161; in assay [10] it was −0.35. Moreover, the “logarithmic value of ratio of IC40 values” in [11] is −0.12; in [12], −0.10; in assay [13], −0.05; in [14] it was 0.42; in assay [15], −0.14; in assay [16], 0.00. Also, the “logarithmic value of ratio of IC40 values” is given as −0.10 in assay [17], −0.05 in assay [18] and 0.00 in assay [19].

`C[C@@H]1O[C@@H](O[C@H]2C[C@@H](O)[C@]3(CO)[C@H]4[C@H](O)C[C@]5(C)[C@@H](C6=CC(=O)OC6)CC[C@]5(O)[C@@H]4CC[C@]3(O)C2)[C@H](O)[C@H](O)[C@H]1O` [Ouabain, ouabain]: the “logarithmic value of ratio of IC40 values” came out at 0.00 in [1] (setting [20]); 0.06 in assay [1] (setting [21]); 0.34 in assay [2]; 0.00 in [3]; 0.00 in [4]; 0.19 in assay [5]. Moreover, the “logarithmic value of ratio of IC40 values” is given as −0.15 in assay [6] (setting [22]); −0.12 in assay [6] (setting [23]); 0.32 in [7]; 0.00 in assay [8]; 0.103 in assay [9]; 0.00 in assay [10]. Also, the “logarithmic value of ratio of IC40 values” in [11] is reported as 1.28; in [12], 0.28; in assay [13], 0.41; in [14], 0.49; in assay [15], −0.08; in [16], 0.05. Besides, the “logarithmic value of ratio of IC40 values” stood at 0.45 in [17], 0.74 in assay [18] and 0.00 in assay [19].

As to `CC(=O)OCOC(=O)CN(CC(=O)OCOC(C)=O)c1ccccc1OCCOc1ccccc1N(CC(=O)OCOC(C)=O)CC(=O)OCOC(C)=O` [BAPTA-AM], the “logarithmic value of ratio of IC40 values” in [1] (setting [20]) is recorded as 0.43; in assay [1] (setting [21]), −0.42; in [2], 0.29; in [3], 0.05; in [4], −0.62; in [5], 0.31. Further, the “logarithmic value of ratio of IC40 values” is 0.00 in assay [6] (setting [22]); 0.00 in assay [6] (setting [23]); −0.20 in assay [7]; 0.81 in assay [8]; 0.20 in assay [9]; −0.22 in [10]. In addition, the “logarithmic value of ratio of IC40 values” in assay [11] stood at 0.34; in [12] it was 0.06; in assay [13], 0.00; in [14], 0.09; in assay [15], 0.06; in assay [16], 0.00. Further, the figures for the “logarithmic value of ratio of IC40 values” in assay [17], in assay [18] and in [19] were 0.09, 0.70 and 0.00, respectively.
